Laboratory results: patent US20160175306A1, “COMBINATION OF A IMIDAZOPYRIDAZINE DERIVATIVE AND A MITOTIC AGENT FOR THE TREATMENT OF CANCER” (BAYER PHARMA AKTIENGESELLSCHAFT, priority 2013, published 2016)

Key:
rat hepatocytes = assay: In vitro metabolic stability in rat hepatocytes; assay type: in vitro ADME; details: 1 μM test compound, calculated from half-life
Method: Investigation of In Vitro Metabolic Stability in Rat Hepatocytes (Including Calculation of Hepatic In Vivo Blood Clearance (CL))
Hepatocytes from Han Wistar rats were isolated via a 2-step perfusion method. After perfusion, the liver was carefully removed from the rat: the liver capsule was opened and the hepatocytes were gently shaken out into a Petri dish with ice-cold WME. The resulting cell suspension was filtered through sterile gaze in 50 ml falcon tubes and centrifuged at 50×g for 3 min at room temperature.
The cell pellet was resuspended in 30 ml WME and centrifuged through a Percoll® gradient for 2 times at 100×g. The hepatocytes were washed again with Williams' medium E (WME) and resuspended in medium containing 5% FCS. Cell viability was determined by trypan blue exclusion.
For the metabolic stability assay liver cells were distributed in WME containing 5% FCS to glass vials at a density of 1.0×10^6 vital cells/m. The test compound was added to a final concentration of 1 μM. During incubation, the hepatocyte suspensions were continuously shaken and aliquots were taken at 2, 8, 16, 30, 45 and 90 min, to which equal volumes of cold methanol were immediately added. Samples were frozen at −20° C. over night, after subsequently centrifuged for 15 minutes at 3000 rpm and the supernatant was analyzed with an Agilent 1200 HPLC-system with LCMS/MS detection.
The half-life of a test compound was determined from the concentration-time plot. From the half-life the intrinsic clearances were calculated. Together with the additional parameters liver blood flow, amount of liver cells in vivo and in vitro. The hepatic in vivo blood clearance (CL) and the maximal oral bioavailability (Fmax) was calculated. The following parameter values were used: Liver blood flow—4.2 L/h/kg rat; specific liver weight—32 g/kg rat body weight; liver cells in vivo—1.1×10^8 cells/g liver, liver cells in vitro—0.5×10^6/ml.

human kinase Mps-1 = target: T1, human kinase Mps-1 (Homo sapiens, UniProt P33981); assay: Mps-1 Kinase Assay (TR-FRET); assay type: biochemical; details: 10 μM ATP
T1 construct: N-terminally GST-tagged human full length recombinant Mps-1 kinase; purchased Invitrogen, Karslruhe, Germany PV4071
T1 sequence (P33981 1-857): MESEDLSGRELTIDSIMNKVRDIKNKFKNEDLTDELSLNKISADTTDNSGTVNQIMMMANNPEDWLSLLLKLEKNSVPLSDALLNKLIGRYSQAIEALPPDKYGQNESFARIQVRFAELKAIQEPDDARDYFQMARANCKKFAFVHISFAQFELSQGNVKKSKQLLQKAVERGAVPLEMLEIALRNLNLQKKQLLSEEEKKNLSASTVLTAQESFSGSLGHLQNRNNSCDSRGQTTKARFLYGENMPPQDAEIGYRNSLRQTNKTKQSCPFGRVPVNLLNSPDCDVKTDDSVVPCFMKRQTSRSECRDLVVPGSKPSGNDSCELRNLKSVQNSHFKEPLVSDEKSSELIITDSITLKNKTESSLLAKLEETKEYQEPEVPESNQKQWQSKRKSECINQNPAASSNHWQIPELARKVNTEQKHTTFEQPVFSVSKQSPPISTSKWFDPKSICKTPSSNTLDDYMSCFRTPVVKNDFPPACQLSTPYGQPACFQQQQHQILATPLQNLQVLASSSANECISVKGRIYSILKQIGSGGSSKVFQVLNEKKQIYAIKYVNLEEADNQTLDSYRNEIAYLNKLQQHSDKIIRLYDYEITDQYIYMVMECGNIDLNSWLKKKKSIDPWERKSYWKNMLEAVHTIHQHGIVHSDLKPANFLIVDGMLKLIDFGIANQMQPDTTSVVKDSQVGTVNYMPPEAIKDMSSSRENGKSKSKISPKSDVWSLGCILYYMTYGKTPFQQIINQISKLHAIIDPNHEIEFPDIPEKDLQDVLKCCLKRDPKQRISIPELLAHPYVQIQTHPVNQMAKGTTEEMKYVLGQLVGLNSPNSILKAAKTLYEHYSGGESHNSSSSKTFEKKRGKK
Method: The human kinase Mps-1 phosphorylates a biotinylated substrate peptide. Detection of the phosphorylated product is achieved by time-resolved fluorescence resonance energy transfer (TR-FRET) from Europium-labelled anti-phospho-Serine/Threonine antibody as donor to streptavidin Labelled with cross-linked allophycocyanin (SA-XLent) as acceptor. Compounds are tested for their inhibition of the kinase activity.
N-terminally GST-tagged human full length recombinant Mps-1 kinase (purchased from Invitrogen, Karslruhe, Germany, cat. no PV4071) was used. As substrate for the kinase reaction a biotinylated peptide of the amino-acid sequence […] (C-terminus in amide form, purchased from Biosynthan GmbH, Berlin) was used.
The concentration of Mps-1 in the assay was adjusted to the activity of the enzyme lot and was chosen appropriate to have the assay in the linear range, typical enzyme concentrations were in the range of about 1 nM (final conc. in the 5 μl assay volume).
The resulting mixture was incubated 1 h at 22° C. to allow the binding of the phosphorylated peptide to the anti-phospho(Ser/Thr)-Europium-antibody. Subsequently the amount of phosphorylated substrate was evaluated by measurement of the resonance energy transfer from the Europium-labelled anti-phospho(Ser/Thr) antibody to the Streptavidin-XLent.

| Compound | Fmax (maximal oral bioavailability) (rat hepatocytes) | IC50 (human kinase Mps-1) |
| --- | --- | --- |
| COc1ccc(C(=O)c2cc(NCCC(F)(F)F)c3ncc(-c4ccc(C(=O)NC5CC5)c(C)c4)n3n2)cc1F [Compound A13, N-Cyclopropyl-4-{6-(3-fluoro-4-methoxybenzoyl)-8-[(3,3,3-trifluoropropyl)amino]imidazo[1,2-b]pyridazin-3-yl}-2-methylbenzamide] | 75% |  |
| Cc1cc(-c2cnc3c(NCCC(F)(F)F)cc(C(=O)c4cccc(F)c4F)nn23)ccc1C(=O)NC1CC1 [Compound A14, N-Cyclopropyl-4-{6-(2,3-difluorobenzoyl)-8-[(3,3,3-trifluoropropyl)amino]imidazo[1,2-b]pyridazin-3-yl}-2-methylbenzamide] | 51% | 0.6 nM |
| Cc1cc(-c2cnc3c(NCCC(F)(F)F)cc(C(=O)c4cc(F)ccc4F)nn23)ccc1C(=O)NC1CC1 [Compound A12, N-Cyclopropyl-4-{6-(2,5-difluorobenzoyl)-8-[(3,3,3-trifluoropropyl)amino]imidazo[1,2-b]pyridazin-3-yl}-2-methylbenzamide] | 67% | 0.6 nM |
| C=C(c1ccc(OC)cc1)c1cc(NCCC(F)(F)F)c2ncc(-c3ccc(C(=O)NC4CC4)c(C)c3)n2n1 [Compound A10, N-Cyclopropyl-4-{6-[1-(4-methoxyphenyl)vinyl]-8-[(3,3,3-trifluoropropyl)amino]imidazo[1,2-b]pyridazin-3-yl}-2-methylbenzamide] | 48% | 0.5 nM |
| C=C(c1cc(NCCC(F)(F)F)c2ncc(-c3ccc(C(=O)NC4CC4)c(C)c3)n2n1)c1cc(F)ccc1F [Compound A19, N-Cyclopropyl-4-{6-[1-(2,5-difluorophenyl)vinyl]-8-[(3,3,3-trifluoropropyl)amino]imidazo[1,2-b]pyridazin-3-yl}-2-methylbenzamide] |  | 0.6 nM |
| Cc1cc(-c2cnc3c(NCCC(F)(F)F)cc(C4(c5cc(F)ccc5F)CC4)nn23)ccc1C(=O)NC1CC1 [Compound A20, N-Cyclopropyl-4-{6-[1-(2,5-difluorophenyl)cyclopropyl]-8-[(3,3,3-trifluoropropyl)amino]imidazo[1,2-b]pyridazin-3-yl}-2-methylbenzamide] |  | 0.8 nM |
| Cc1cc(-c2cnc3c(NCCC(F)(F)F)cc(C4(c5cc(F)ccc5O)CC4)nn23)ccc1C(=O)NC1CC1 [Compound A23, N-cyclopropyl-4-{6-[1-(5-fluoro-2-hydroxyphenyl)cyclopropyl]-8-[(3,3,3-trifluoropropyl)amino]imidazo[1,2-b]pyridazin-3-yl}-2-methylbenzamide] | 40% |  |
| C=C(c1cc(NCCC(F)(F)F)c2ncc(-c3ccc(C(=O)NC4CC4)c(C)c3)n2n1)c1cccc(F)c1F [Compound A15, N-Cyclopropyl-4-{6-[1-(2,3-difluorophenyl)vinyl]-8-[(3,3,3-trifluoropropyl)amino]imidazo[1,2-b]pyridazin-3-yl}-2-methylbenzamide] | 53% | 0.4 nM |
| C=C(c1ccc(OC)c(F)c1)c1cc(NCCC(F)(F)F)c2ncc(-c3ccc(C(=O)NC4CC4)c(C)c3)n2n1 [Compound A1, N-Cyclopropyl-4-{6-[1-(3-fluoro-4-methoxyphenyl)ethenyl]-8-[(3,3,3-trifluoropropyl)amino]imidazo[1,2-b]pyridazin-3-yl}-2-methylbenzamide] | 39% |  |
| Cc1cc(-c2cnc3c(NCCC(F)(F)F)cc(C(F)(F)c4cc(F)ccc4F)nn23)ccc1C(=O)NC1CC1 [Compound A21, N-Cyclopropyl-4-{6-[(2,5-difluorophenyl)(difluoro)methyl]-8-[(3,3,3-trifluoropropyl)amino]imidazo[1,2-b]pyridazin-3-yl}-2-methylbenzamide] |  | 0.5 nM |
| COc1ccc(C(F)(F)c2cc(NCCC(F)(F)F)c3ncc(-c4ccc(C(=O)NC5CC5)c(C)c4)n3n2)cc1 [Compound A16, N-Cyclopropyl-4-{6-[difluoro(4-methoxyphenyl)methyl]-8-[(3,3,3-trifluoropropyl)amino]imidazo[1,2-b]pyridazin-3-yl}-2-methylbenzamide] | 56% |  |
| Cc1cc(-c2cnc3c(NCCC(F)(F)F)cc(C4(c5cccc(F)c5F)CC4)nn23)ccc1C(=O)NC1CC1 [Compound A17, N-Cyclopropyl-4-{6-[1-(2,3-difluorophenyl)cyclopropyl]-8-[(3,3,3-trifluoropropyl)amino]imidazo[1,2-b]pyridazin-3-yl}-2-methylbenzamide] | 50% |  |

The next lines start with the values.

| Fmax (maximal oral bioavailability) (rat hepatocytes) | IC50 (human kinase Mps-1) | Compound |
| --- | --- | --- |
| 70% |  | Cc1cc(-c2cnc3c(NCCC(F)(F)F)cc(C(F)(F)c4cccc(F)c4)nn23)ccc1C(=O)NC1CC1 [Compound A6, N-Cyclopropyl-4-{6-[difluoro(3-fluorophenyl)methyl]-8-[(3,3,3-trifluoropropyl)amino]imidazo[1,2-b]pyridazin-3-yl}-2-methylbenzamide] |
| 18% |  | COc1cccc(Cc2cc(NCCC(F)(F)F)c3ncc(-c4ccc(C(=O)NC5CC5)c(C)c4)n3n2)c1 [Comparative Example 4, N-cyclopropyl-4-{6-(3-methoxybenzyl)-8-[(3,3,3-trifluoropropyl)amino]imidazo[1,2-b]pyridazin-3-yl}-2-methylbenzamide, reference compound] |
| 35% |  | COc1ccc(Cc2cc(NCCC(F)(F)F)c3ncc(-c4ccc(C(=O)NC5CC5)c(C)c4)n3n2)cc1 [Comparative Example 5, N-Cyclopropyl-4-{6-(4-methoxybenzyl)-8-[(3,3,3-trifluoropropyl)amino]imidazo[1,2-b]pyridazin-3-yl}-2-methylbenzamide, reference compound] |
| 29% |  | COc1ccc(Cc2cc(NCCC(F)(F)F)c3ncc(-c4ccc(C(=O)NC5CC5)c(C)c4)n3n2)cc1F [Comparative Example 1, N-Cyclopropyl-4-{6-(3-fluoro-4-methoxybenzyl)-8-[(3,3,3-trifluoropropyl)amino]imidazo[1,2-b]pyridazin-3-yl}-2-methylbenzamide, reference compound] |
| 43% |  | Cc1cc(-c2cnc3c(NCCC(F)(F)F)cc(Cc4cccc(F)c4)nn23)ccc1C(=O)NC1CC1 [Comparative Example 3, N-Cyclopropyl-4-{6-(3-fluorobenzyl)-8-[(3,3,3-trifluoropropyl)amino]imidazo[1,2-b]pyridazin-3-yl}-2-methylbenzamide, reference compound] |
| 3% |  | Cc1cc(-c2cnc3c(NCCC(F)(F)F)cc(Cc4cccc(F)c4O)nn23)ccc1C(=O)NC1CC1 [Comparative Example 2, N-Cyclopropyl-4-{6-(3-fluoro-2-hydroxybenzyl)-8-[(3,3,3-trifluoropropyl)amino]imidazo[1,2-b]pyridazin-3-yl}-2-methylbenzamide, reference compound] |
